Reference: patent publication US9498412B2, “Method for producing microcapsules with a sun protection effect” (Greenjoy Biotech Co., Ltd., priority 2014, dated 2016)
Like-named read-outs stand apart in the source and are kept apart here.

Format: in vitro ADME
Settings: Landrace, pig, 3 % in mineral oil
Method: 5. In Vitro Transdermal Delivery Analysis:
(1) Preparing penetration membranes from a swine skin: An ear skin of a 6-month-old Landrace pig was prepared and cleaned with deionized water. The upper skin of the pig ear was cut by a scalpel to remove the fat layer. Then, the pig ear was cut into a plurality of penetration membranes each having an area of 1.5×1.5 cm^2 and each having a thickness of 605 μm. The penetration membranes were soaked in phosphate buffer saline (PBS), were sealed in a bag, and were frozen for future use.
(2) Before experiment, the penetration membranes were unfrozen in PBS to room temperature such that the gaps between the keratinocyte cells returned to their natural state. The penetration membranes were fixed in a Franz-type diffusion cell (see FIG. 2). The diffusion area was 0.636 cm^2. To test the skin integrity, the upper and lower sections of the diffusion cell were filled with 50% ethanol+50% PBS. After removing bubbles from the lower chamber, a sample of 0.5 g was placed into the upper, donor cell, and 50% ethanol+50% PBS was placed into the lower, receptor cell having a volume of 5.3 mL. A thermostat water tank heater was used to control the water temperature to be 35° C.±1. Stirring was carried out by using a magnet to balance the drug concentration distribution in the receptor cell.
(3) Each experiment used 5 diffusion cells to obtain the average value. 50 μL was sampled from the receptor cell and analyzed by HPLC. The same amount of a physiological solution was filled back into the receptor cell to maintain the total volume in the receptor cell.
(4) The injected volume was 50 μL. The detection wavelength was 260 nm. A mixture of 88% methanol, 11% water, and 1% acetic acid was used as the mobile phase in isocratic elution. The flow rate of the mobile phase was 1.0 mL/min. OMC of 1 ppm, 10 ppm, 50 ppm, and 100 ppm and avobenzone standard solution were used to create a calibration curve. Each concentration was detected three times to obtain the average value. Peak-ABC Chromatography Data Handling System (manufactured by Great Tide Instruments, Taiwan) was used to capture and handle the signals. A sample of 50 μL was sampled from the receptor cell and analyzed by HPLC. Peak-ABC Chromatography Data Handling System was used to analyze the concentration for calculating the lag time and the flux.
The Franz-type diffusion cell system was used to assess the penetration characteristics of carrier-entrapped filters. […] The stratum corneum is an important barrier of the skin for resisting alien objects and is also a hindrance to transdermal delivery of an active constituent. During an initial stage of passage from the donor site to the receptor site through the skin, there is a lag time for the active constituent to penetrate the membrane of the saturated skin. After that, the active constituent remains in steady-state diffusion for a period of time during which the diffusion flux is not changed.
Assume the concentrations of the active constituent at the donor site and the receptor site of the penetration membrane are respectively Cv and Cr, the mechanism of initial transdermal absorption can be explained by Fick's first law of diffusion: J=dQ/Dt=DAK(Cv−Cr)/h
wherein J is the transdermal flux, Q is the cumulative penetration amount, D is the diffusion coefficient, A is the diffusional surface area, K is the partition coefficient, and h is the diffusional pathlength.
Since Cr is very small at the initial stage of penetration, DC=(Cv−Cr) arrpoximates Cv. The transdermal flux is in proportion to the concentration difference ([…]). Thus, the slope of an optimal line in a diagram obtained from the cumulative penetration quantity Q and the penetration time t is the transdermal flux J. The lag time parameter can be obtained by linear extrapolation to the intersection on X axis. […]

Amount in receptor site (0 h) | Transdermal flux (%) (0 h) | lag time | Amount in receptor site (0.5 h) | Transdermal flux (%) (0.5 h) | Amount in receptor site (1 h) | Transdermal flux (%) (1 h) | Amount in receptor site (2 h) | Transdermal flux (%) (2 h) | Amount in receptor site (3 h) | Transdermal flux (%) (3 h) | transdermal flux (4 h) | Amount in receptor site (6 h) | Transdermal flux (%) (6 h) | transdermal flux (6 h) | SMILES
0 μg/cm^2 | 0% | 0.15 h | 0 μg/cm^2 | 0% | 31.84 ± 1.81 μg/cm^2 | 0.13 ± 0.01% | 65.15 ± 7.96 μg/cm^2 | 0.28 ± 0.03% | 121.97 ± 4.95 μg/cm^2 | 0.52 ± 0.02% | 40.069 μg/cm^2·hr | 227.55 ± 12.94 μg/cm^2 | 0.96 ± 0.05% | – | CCCCC(CC)COC(=O)C=Cc1ccc(OC)cc1 (stereo not shown) [OMC, octyl methoxycinnamate]
0 μg/cm^2 | 0% | 0.23 h | 0 μg/cm^2 | 0% | 20.12 ± 2.19 μg/cm^2 | 0.09 ± 0.01% | 48.21 ± 2.73 μg/cm^2 | 0.20 ± 0.01% | 84.85 ± 4.27 μg/cm^2 | 0.36 ± 0.02% | – | 161.26 ± 3.74 μg/cm^2 | 0.68 ± 0.02% | 28.237 μg/cm^2·hr | COc1ccc(C(=O)CC(=O)c2ccc(C(C)(C)C)cc2)cc1 [avobenzone]
